Structures are written as SMILES. pIC50: −log10 of the molar value. Where a name gives a salt, the structure may show the parent alone.

T1 sequence (Q9BUB5 whole entry): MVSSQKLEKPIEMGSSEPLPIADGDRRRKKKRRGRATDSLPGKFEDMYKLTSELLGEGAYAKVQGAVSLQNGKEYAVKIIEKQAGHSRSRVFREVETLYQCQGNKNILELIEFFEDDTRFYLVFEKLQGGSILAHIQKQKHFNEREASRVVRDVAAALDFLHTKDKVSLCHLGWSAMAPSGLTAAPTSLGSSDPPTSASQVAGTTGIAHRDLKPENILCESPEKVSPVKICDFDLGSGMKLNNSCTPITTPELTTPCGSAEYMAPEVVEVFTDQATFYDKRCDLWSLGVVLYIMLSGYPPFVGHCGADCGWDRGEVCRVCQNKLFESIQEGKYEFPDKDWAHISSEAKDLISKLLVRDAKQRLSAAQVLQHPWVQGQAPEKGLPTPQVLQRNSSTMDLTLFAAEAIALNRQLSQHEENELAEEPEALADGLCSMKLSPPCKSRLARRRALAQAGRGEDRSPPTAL

This test has as its target T1, Human recombinant full-length MNK1 protein (Homo sapiens, UniProt Q9BUB5).
T1 construct: Human recombinant full-length MNK1 protein; purchased Thermo PR9138A
Put plainly: MNK1 inhibitory activity assay (ADP-Glo in vitro kinase assay). The settings on record: 10 concentration points. The format is biochemical. On the procedure:
MNK1 Inhibitory Activity Assay: Evaluation of the effects of compounds of the invention on […] (MNK1) activity using in vitro kinase assays. The experimental methods are summarized as follows: The in vitro activity of MNK1 was determined by measuring the level of ADP produced in the kinase reaction using the ADP-Glo Kinase Assay Kit. The reaction buffer consisted of the following components: 50 mM HEPES, pH 7.5, 10 mM MgCl2, 1 mM EGTA, 0.01% Brij35. Human recombinant full-length MNK1 protein (Thermo, Cat. No. PR9138A) was diluted with a reaction buffer to a 3.13 ng/uL kinase solution. The substrate reaction solution consisted of a substrate diluted to 0.75 mg/ml in reaction buffer ([…], available from […] Domestic Company), 2250 uM ATP, the ADP-Glo reagent and kinase assay solution from Promega kit (Promega, V9102). […] If the compound IC50 value is very low, the initial concentration of the compound can be lowered. To a 384-well assay plate (Thermo, Cat. No. 264706) were added 1 uL of compound solution and 2 uL of MNK1 kinase solution. The mixture was mixed well and incubated for 30 minutes at room temperature; then 2 uL of substrate reaction solution was added, the reaction mixture was incubated for 120 minutes at room temperature. The reaction was terminated after an equal volume of 5uLADP-Glo solution was added, and the remaining ATP was completely consumed. After mixing for 60 minutes at room temperature, 10 ul of the kinase assay solution was added, and the mixture was uniformly mixed, and allowed to stand at room temperature for 40 minutes in the dark. The detection solution converts ADP into new ATP through coupled luciferase/luciferin, and ATP is converted into optical signal by Ultr-GloTM luciferase, which can be detected by Envision. The intensity of the light signal is proportional correlated with the amount of ADP produced in the kinase reaction, therefore, the activity of MNK1 kinase can be determined. In this experiment, the group without protein was used as a negative control (100% inhibition). The group with protein but without compounds was used as a positive control (0% inhibition).
For orientation: ADP-Glo first removes unused ATP, then detects ADP through luciferase.
For the molecule `COc1cc2[nH]ncc2cc1Nc1ncnc(N)c1C(=O)N1CCOCC1` [Compound 41], the negative logarithm of the IC50 (pIC50) (as a rule, the negative decadic logarithm of the IC50, by convention in mol/L) is 5.98.
For the molecule `CNc1cc(Nc2cc3cn[nH]c3cc2OC)ncn1` [Compound 30, 5-(6-Methylaminopyrimidin-4-ylamino)-6-methoxy-1H-indazole], the negative logarithm of the IC50 (pIC50) is 6.85.
With `COc1cc2[nH]ncc2cc1Nc1cc(N)ncn1` [Compound 9, 5-(6-aminopyrimidin-4-ylamino)-6-methoxy-1H-indazole], the pIC50 was 6.53.
As for `COc1cc2[nH]ncc2cc1Nc1cc(NS(=O)(=O)C2CC2)ncn1` [Compound 49, 5-((6-(Cyclopropanesulfonylamino)pyrimidin-4-yl)amino)-6-methoxy-1H-indazole], the pIC50 is 5.98.
Under `COc1cc2[nH]ncc2cc1Nc1ncnc(N)c1C1=CCC(C(=O)O)CC1` (centres unmarked) [Compound 32, 5-((6-Amino-5-cyclohex-3-ene-1-carboxypyrimidin-4-yl)amino)-6-methoxy-1H-indazole hydrochloride] stands 6.78; under `COc1cc2[nH]ncc2cc1Nc1cc(Nc2cc(Cl)ccn2)ncn1` [Compound 21, 5-(6-((4-Chloropyridin-2-yl)amino)pyrimidin-4-ylamino)-6-methoxy-1H-indazole], 7.11; under `COc1cc2c(cnn2C)cc1Nc1cc(NC(=O)C2CC2)ncn1` [Compound 5, 5-(6-Cyclopropionamidopyrimidin-4-ylamino)-6-methoxyl-methylindazole formate], 6.23.
In the case of `COc1cc2[nH]ncc2cc1Nc1ncnc(NC(=O)C2CC2)c1C` [Compound 48, 5-((6-(Cyclopropionamido)-5-methylpyrimidin-4-yl)amino)-6-methoxy-1H-indazole], the negative-log IC50 (pIC50) is 6.73.
For `CCOc1cc2[nH]ncc2cc1Nc1cc(NC(=O)C2CC2)ncn1` [Compound 6, 5-(6-Cyclopropionamidopyrimidin-4-ylamino)-6-ethoxy-1H-indazole], the pIC50 is 7.53.
The result for `COc1cc2[nH]ncc2cc1Nc1ncnc(N)c1-c1ccccn1` [Compound 44, 5-((6-amino-5-(pyridin-2-yl)pyrimidin-4-yl)amino-6-methoxy-1H-indazole formate] reads 6.00.
Under `COCCOc1cncnc1Nc1ccc2c(c1OC)CNC2=O` [Compound 75, 5-((5-(2-Methoxyethoxy)pyrimidin-4-yl)amino)-4-methoxyisodihydroindole-1-one] stands 7.46.
For the molecule `COc1c(Nc2ncnc3[nH]ccc23)ccc2c1CNC2=O` [Compound 79, 5-((7H-Pyrrolo[2,3-d]pyrimidin-4-yl)amino)-4-methoxyisoindolin-1-one], the pIC50 is 7.68.
Under `COc1c(Nc2cc(Nc3ncccc3Cl)ncn2)ccc2c1CNC2=O` [Compound 83, 5-((6-((3-Chloropyridin-2-yl)amino)pyrimidin-4-yl)amino)-4-methoxyisoindolin-1-one] stands 7.02; under `COc1c(Nc2ncncc2OCCN(C)C)ccc2c1CNC2=O` [Compound 77, 5-((5-(2-(Dimethylamino)ethoxy)pyrimidin-4-yl)amino)-4-methoxyisodihydroindole-1-one dicarboxylate], 6.05; under `COc1cc2[nH]ncc2cc1Nc1cc(Nc2cc(C(F)(F)F)ccn2)ncn1` [Compound 25, 5-(6-((4-(Trifluoromethyl)pyridin-2-yl)amino)pyrimidin-4-ylamino)-6-methoxy-1H-indazole], 7.40.
On to `COc1nc2[nH]ncc2cc1Nc1cc(NC(C)=O)ncn1` [Compound 50, 5-(6-(Acetamido)pyrimidin-4-yl) amino)-6-methoxy-1H-pyrazolo [3,4-b] pyridine formate], for which the negative-log IC50 (pIC50) was 6.60.
Under `CCOC(=O)c1c(N)ncnc1Nc1cc2cnn(C(=O)OC(C)(C)C)c2cc1OC` [Compound 35, 1-tert-Butoxycarbonyl-5-((6-amino-5-ethoxycarbonylpyrimidin-4-yl)amino)-6-methoxyindazole] stands 7.49; under `COc1c(Nc2cc(N)ncn2)ccc2c1CNC2=O` [Compound 66, 5-((6-Aminopyrimidin-4-yl)amino)-4-methoxyisoindolin-1-one hydrochloride], 7.41.
The result for `COc1cc2[nH]ncc2cc1Nc1ncncc1Nc1ccccc1` [Compound 57, 5-(5-Anilinopyrimidin-4-yl) amino)-6-methoxy-1H-indazole formate] reads 6.49; that for `COc1cc2nn(C(=O)C3CC3)cc2cc1Nc1cc(NC(=O)C2CC2)ncn1` [Compound 15, 2-Cyclopropanoyl-5-(6-cyclopropionamidopyrimidin-4-ylamino)-6-methoxyindazole], 7.68; that for `COCCOc1cncnc1Nc1cc2cn[nH]c2cc1OC` [Compound 53], 7.64.
The result for `COc1cncnc1Nc1ccc2c(c1OC)CNC2=O` [Compound 74, 5-((5-Methoxypyrimidin-4-yl)amino)-4-methoxyisodihydroindole-1-one] reads 7.42.
Consider `COc1cc2[nH]ncc2cc1Nc1ncncc1-c1nc2cccc(N3CCN[C@@H](C)C3)c2n1C` [Compound 64, 6-Methoxy-N-(4-{1-methyl-7-[(3S)-3-methylpiperazin-1-yl]-1H-benzimidazol-2-yl}pyrimidine-5-)-1H-indazol-5-amine], for which the negative-log IC50 (pIC50) was 6.36.
The result for `COc1cc2c(cnn2C(=O)C2CC2)cc1Nc1cc(NC(=O)C2CC2)ncn1` [Compound 14, 1-Cyclopropanoyl-5-(6-cyclopropionamidopyrimidin-4-ylamino)-6-methoxyindazole] reads 5.96; that for `COc1cc2[nH]ncc2cc1Nc1cc(NC(=O)c2ccccc2)ncn1` [Compound 10, 5-(6-benzoylaminopyrimidin-4-ylamino)-6-methoxy-1H-indazole], 7.62; that for `COc1c(Nc2ncncc2OCCO)ccc2c1CNC2=O` [Compound 78, 5-((5-(2-Hydroxyethoxy)pyrimidin-4-yl)amino)-4-methoxyisoindolin-1-one], 7.71.
As for `CCOC(=O)c1c(N)ncnc1Nc1cc2cn[nH]c2cc1OC` [Compound 36, 5-((6-Amino-5-ethoxycarbonylpyrimidin-4-yl)amino)-6-methoxy-1H-indazole dicarboxylate], the negative logarithm of the IC50 (pIC50) is 8.11.
As to `COC(=O)n1ncc2cc(Nc3cc(NC(=O)C4CC4)ncn3)c(OC)cc21` [Compound 17, 1-Methoxyacyl-5-(6-cyclopropionamidopyrimidin-4-ylamino)-6-methoxyindazole], the pIC50 was 7.55.
`COc1cc2[nH]ncc2cc1Nc1ncnc(N)c1C(=O)O` [Compound 39, 5-((6-Amino-5-carbonylpyrimidin-4-yl)amino)-6-methoxy-1H-indazole formate]: the pIC50 was 7.89.
The result for `COc1cc2[nH]ncc2cc1Nc1cc(Nc2ncccc2Cl)ncn1` [Compound 28, 5-(6-((3-Chloropyridin-2-yl)amino)pyrimidin-4-ylamino)-6-methoxy-1H-indazole] reads 6.27.
As to `COc1cc2[nH]ncc2cc1Nc1ncncc1OCCO` [Compound 54, 5-(5-(2-Hydroxyethoxy)pyrimidin-4-yl) amino)-6-methoxy-1H-indazole formate], the negative-log IC50 (pIC50) is 7.46.
Turning to `COc1cc2[nH]ncc2cc1Nc1cc(-n2ccnc2)ncn1` [Compound 65, N-(6-(1H-Imidazol-1-yl)pyrimidin-4-yl)-6-methoxy-1H-indazol-5-amine formate], the pIC50 was 6.16.
On to `COc1cc2c(cnn2C(=O)OC(C)(C)C)cc1Nc1cc(NC(C)=O)ncn1` [Compound 1, 1-tert-Butoxycarbonyl-5-(6-acetylaminopyrimidin-4-ylamino)-6-methoxyindazole], for which the negative logarithm of the IC50 (pIC50) is 7.81.
Under `CNc1cncnc1Nc1ccc2c(c1OC)CNC2=O` [Compound 82, 5-((5-Methylaminopyrimidin-4-yl)amino)-4-methoxyisodihydroindole-1-one formate] stands 6.81; under `COc1cc2[nH]ncc2cc1Nc1ncnc(N)c1C1=CCC(C(=O)N2CCN(C)CC2)CC1` (centres unmarked) [Compound 33, 5-((6-Amino-5-cyclohex-3-en-1-yl (4-methylpiperazin-1-yl)methanylpyrimidin-4-yl)amino)-6-methoxy-1H-indazole formate], 7.02; under `COc1cc2[nH]ncc2cc1Nc1cc(NC(C)=O)ncn1` [Compound 2, 5-(6-Acetylaminopyrimidin-4-ylamino)-6-methoxy-1H-indazole], 7.23.
The result for `COc1cc2[nH]ncc2cc1Nc1cc(Nc2ncccn2)ncn1` [Compound 27, 5-(6-(Pyrimidin-2-ylamino)pyrimidin-4-ylamino)-6-methoxy-1H-indazole] reads 7.36; that for `COc1c(Nc2ncncc2OCCN2CCOCC2)ccc2c1CNC2=O` [Compound 76, 5-((5-(2-(4-morpholin)ethoxy)pyrimidin-4-yl)amino)-4-methoxyisodihydroindol-1-one formate], 6.24.

Values taken from patent publication US20220289719A1, “HETEROCYCLIC COMPOUNDS AS MNK INHIBITORS” (NANJING INNOCARE PHARMA TECH CO., LTD., priority 2017, published 2022).
